Results reported in US20240003908A1, “POLYOL BIOMARKERS FOR CONGENITAL DISORDERS OF GLYCOSYLATION” (Mayo Foundation for Medical Education and Research, priority 2020, published 2024).
“And” between values parts separate entries of the source, which are not always exact repeats. Equal entries are not always repeated.

Legend:
[1] = test system: child with PMM2-CDG; experiment: Single patient (P1) study: clinical efficacy (ICARS, NPCRS, BMI, weight); format: in vivo, human
Protocol: Prospectively collected clinical and laboratory data in 24 PMM2-CDG patients: The genetic, laboratory, metabolic, and clinical data of 24 PMM2-CDG patients were evaluated (TABLES 2A and 2B). Disease severity was assessed by Nijmegen Pediatric CDG Rating Scale (NPCRS), (most severe=82; mild (0-14), moderate (15-25), severe (>26)) (Achouitar et al., J Inherit Metab Dis 34:923-927, 2011; and Martinez-Monseny et al., Ann Neurol 85:740-751, 2019). Patient P1 and twin patients P4 and P5 also were discussed elsewhere (Qian et al., JIMD Rep 56:27-33, 2020; and Jaeken et al., Ped Res 14:179, 1980). P1, enrolled in a single IND clinical trial, was additionally evaluated by the International cooperative ataxia rating scale (ICARS) (Trouillas et al., J Neurol Sci 145:205-211, 1997), which assesses limb ataxia, dysarthria, posture and gait disturbances, and oculomotor disorders (0=normal; 100=most severe). Urinary polyols including sorbitol and mannitol were analyzed by GC/MS in 23 out of the 24 PMM2-CDG patients (patient P6 was deceased). In addition, functional in vitro data was collected from the fibroblasts of P1-P6, P8, P10, P17, P19, and P24.
Study design: An open label, single patient (P1) compassionate use study was designed to assess the safety and tolerability of oral epalrestat therapy in a child with PMM2-CDG.
(§1) Patient assessment: Prior to the first dose of epalrestat and at 1, 2, 3, 6, 8, 9, 12 months during treatment, concomitant medications and vital signs were recorded and the patient was evaluated using the NPCRS. In addition, blood was drawn for serum chemistry, hematology, and plasma levels of epalrestat. Urine was collected for polyol measurement at baseline and twice over the course of 12 months of therapy.
Drug administration: Epalrestat was administered orally, 3 times per day (TID) before meals in a divided dose (0.8 mg/kg/day; 5 mg TID) of epalrestat (Ono Pharmaceuticals, Osaka, Japan) starting on Day 1 of the study.
(§2) Safety and efficacy: Safety measures included vital signs, change in CBC, liver function (INR, bilirubin, transaminases, and albumin) in blood, change in liver elastography, and following the pharmacokinetic profile of epalrestat. The efficacy of epalrestat was studied by clinical follow up (physical exam, NPCRS, ICARS), standard laboratory tests, and transferrin glycoform analysis by mass spectrometry.

[2] = test system: fibroblasts from PMM2-CDG patients; experiment: Sorbitol and mannitol levels (GC-MS) in fibroblasts treated with epalrestat for 5 days; format: cell-based, human; details: fibroblasts from 5 PMM2-CDG patients vs 5 healthy controls, 10 μM epalrestat 5 days
Protocol: Metabolomics measurements: Fibroblasts derived from patients carrying selected heterozygous mutations in PMM2 (R141H/F119L, R141H/E139K, R141H/N216I, and R141H/F183S) and healthy controls were cultured according to a protocol described elsewhere (Radenkovic et al., Am J Hum Genet. 2019, 104(5):835-846). Cells were grown in specialized medium and treated with 10 μM epalrestat (Iyer et al., supra) for 5 days with two changes of medium. Non-treated fibroblasts from both groups were used as negative controls. Global metabolomic changes were probed by LC/MS.
Polyols also were analyzed by GC due to the inability of LC/MS to distinguish between the same sized metabolites ([…], GLC1P, GLC6P, sorbitol/mannitol/galactitol, etc.) (Radenkovic et al., supra).

[3] = Epalrestat plasma pharmacokinetics (LC-MS/MS) in patient P1; format: in vivo, human
Protocol: Pharmacokinetics: Epalrestat plasma concentrations were measured using an LC-MS/MS assay that was validated according to principles outlined in FDA Guidance Documents. Epalrestat-d5 was utilized as the internal standard. The mass spectrometer was coupled to a Waters Acquity H class ultra-performance liquid chromatography system (Milford, MA). Data were acquired and analyzed with Waters MassLynx v4.1 software. The chromatographic separation of epalrestat and the internal standard was accomplished using an Agilent Infinity Lab Poroshell 120 EC-C18 column, 2.1×100 mm, 2.7 μm (ChromTech, Apple Valley, MN) with an Agilent Poroshell 120 EC-C18 precolumn, 2.1×5 mm, 2.7 μm (ChromTech). Plasma samples were analyzed after protein precipitation with methanol, concentration to dryness under nitrogen, and reconstitution in methanol:water (1:1 v/v). Pharmacokinetics were estimated by non-linear least squares regression using the program Phoenix WinNonlin.

[4] = test system: blood transferrin glycosylation; experiment: Blood transferrin glycoform ratio analysis by mass spectrometry in patient P1; format: in vivo, human; details: for A-oligo/Di-oligo: control ratio ≤ 0.01; for Mono-oligo/Di-oligo: control ratio ≤ 0.06
Protocol: as §1, §2

CC(/C=C1\SC(=S)N(CC(=O)O)C1=O)=C\c1ccccc1 [epalrestat]
body mass index (BMI) ([1]; patient P1, 12-month-follow-up, previous trough 14.8 (30th percentile)): 18.5
ICARS score ([1]; patient P1, epalrestat 0.8 mg/kg/day, within 12 months, from a score of 56): 42
NPCRS score ([1]; patient P1, months 6, 9, and 12, baseline 21-24): 20-21
sorbitol concentration, mean ratio after treatment ([2]; 1.4 prior to treatment, p=0.00013): 1.25
mannitol concentration, mean ratio after treatment ([2]; 1.5 prior to treatment, p=0.064): 1.2
concentration at 8 h ([3]; human, plasma, oral, 5 mg, patient P1, after eight hours, read-out: trough level before the next dose): 23.4 ng/mL and 100 nM
AUC ([3]; human, plasma, oral, patient P1, after a 5 mg dose, read-out: systemic exposure (AUC)): 2790 ng·h/mL
half-life ([3]; human, plasma, po, 5 mg, patient P1, oral dose, plasma, read-out: t½ (converted)): ~1.04 h
oral clearance ([3]; patient P1, after a 5 mg dose): 1.8 L/h
time of peak concentration after administration ([3]; patient P1, oral 0.27 mg/kg (5 mg) dose): one
peak concentration in plasma ([3]; patient P1, oral 0.27 mg/kg (5 mg) dose, 0.27 mg/kg): 1125 ng/ml and 3.5 μM
plasma concentration over time profile ([3]; patient P1, oral dose): rapid absorption and elimination
t½ ([3]; patient P1, oral dose, plasma): 1 to 2 h
A-oligo/Di-oligo ([4]; patient P1, 1st month of epalrestat, prior to first dose 0.005): 0.005
Mono-oligo/Di-oligo ([4]; patient P1, 1st month of epalrestat, prior to first dose 0.09): 0.14
A-oligo/Di-oligo ([4]; patient P1, 2nd month): 0.01
Mono-oligo/Di-oligo ([4]; patient P1, 2nd month): 0.07
A-oligo/Di-oligo ([4]; patient P1, 3rd month): 0.004
Mono-oligo/Di-oligo ([4]; patient P1, 3rd month): 0.08
A-oligo/Di-oligo ([4]; patient P1, 6th month): 0.003
Mono-oligo/Di-oligo ([4]; patient P1, 6th month): 0.06
A-oligo/Di-oligo ([4]; patient P1, 8th month): 0.004
Mono-oligo/Di-oligo ([4]; patient P1, 8th month): 0.06
A-oligo/Di-oligo ([4]; patient P1, 9th month): 0.004
Mono-oligo/Di-oligo ([4]; patient P1, 12th month, after dose correction): 0.06
A-oligo/Di-oligo ([4]; patient P1, 12th month): 0.004
